Source: patent US11236081B2, “Crystalline salts of corydalmine” (priority 2018, dated 2022)
Where “and” joins values, the source holds several entries; their conditions need not be identical. Identical values can stand only once.

Key:
[1] = Solubility studies in water at 2 hours; type: physicochemical
[2] = Dynamic vapor sorption (DVS), hygroscopicity at 25° C.; type: physicochemical; conditions: for hygroscopicity (DVS) / water absorbed in DVS: 25° C.; for water absorbed in DVS: at 80% RH
Procedure: Dynamic Vapor Sorption (DVS)
DVS was determined using DVS Intrinsic (SMS, UK). Transfer about 20 to 50 mg of the compound into a SMS dynamic vapor sorption model DVS and record the weight change with respect to a varying atmospheric humidity at 25° C.

[3] = Pharmacokinetic study: plasma concentration and plasma PK parameters after IV/PO dosing (LC-MS/MS, WinNonlin); type: in vivo, Male SD Rat; conditions: for AUCInf / AUClast / AUClast/D / AUC—% Extrap_obs / Cmax / MRTInf_obs / T1/2 / Tmax / AUCInf, Mean / AUClast, Mean / AUClast/D, Mean / AUC—% Extrap_obs, Mean / Cmax, Mean / MRTInf_obs, Mean / T1/2, Mean / Tmax, Mean: plasma
Text: Pharmacokinetic and Brain Penetration Study
Dose formulation processing during dosing: The dose formulations will be kept at room temperature.
Concentrations of Test Article in the plasma samples will be analyzed using a LC-MS/MS method.
WinNonlin (Phoenix™, version 6.1) or other similar software will be used for pharmacokinetic calculations. The following pharmacokinetic parameters will be calculated, whenever possible from the plasma concentration versus time data:
IV administration: T1/2, C0, AUClast, AUCinf, MRTinf, Cl, Vss, Number of Points for Regression.
PO administration: T1/2, Cmax, Tmax, MRTinf, AUCinf, AUClast, F %, Number of Points for Regression.
The pharmacokinetic data will be described using descriptive statistics such as mean, standard deviation.

[4] = male SD rat, PO 10 mg/kg (equal to freebase), 0 h, individual rats, vehicle 20% HP-β-CD in water (POA, freebase) or water (salts)
[5] = male SD rat, PO 10 mg/kg (equal to freebase), 0.25 h, individual rats, vehicle 20% HP-β-CD in water (POA, freebase) or water (salts), 10 mg/kg
[6] = male SD rat, PO 10 mg/kg (equal to freebase), 0.25 h, mean n=3, vehicle 20% HP-β-CD in water (POA, freebase) or water (salts)
[7] = male SD rat, PO 10 mg/kg (equal to freebase), 0.5 h, individual rats, vehicle 20% HP-β-CD in water (POA, freebase) or water (salts), 10 mg/kg
[8] = male SD rat, PO 10 mg/kg (equal to freebase), 0.5 h, mean n=3, vehicle 20% HP-β-CD in water (POA, freebase) or water (salts)
[9] = male SD rat, PO 10 mg/kg (equal to freebase), 1 h, individual rats, vehicle 20% HP-β-CD in water (POA, freebase) or water (salts), 10 mg/kg
[10] = male SD rat, PO 10 mg/kg (equal to freebase), 1 h, mean n=3, vehicle 20% HP-β-CD in water (POA, freebase) or water (salts)
[11] = male SD rat, PO 10 mg/kg (equal to freebase), 2 h, individual rats, vehicle 20% HP-β-CD in water (POA, freebase) or water (salts), 10 mg/kg
[12] = male SD rat, PO 10 mg/kg (equal to freebase), 2 h, mean n=3, vehicle 20% HP-β-CD in water (POA, freebase) or water (salts)
[13] = male SD rat, PO 10 mg/kg (equal to freebase), 4 h, individual rats, vehicle 20% HP-β-CD in water (POA, freebase) or water (salts), 10 mg/kg
[14] = male SD rat, PO 10 mg/kg (equal to freebase), 4 h, mean n=3, vehicle 20% HP-β-CD in water (POA, freebase) or water (salts)
[15] = male SD rat, PO 10 mg/kg (equal to freebase), 8 h, individual rats, vehicle 20% HP-β-CD in water (POA, freebase) or water (salts), 10 mg/kg
[16] = male SD rat, PO 10 mg/kg (equal to freebase), 8 h, mean n=3, vehicle 20% HP-β-CD in water (POA, freebase) or water (salts)
[17] = male SD rat, PO 10 mg/kg (equal to freebase), 24 h, individual rats, vehicle 20% HP-β-CD in water (POA, freebase) or water (salts)
[18] = male SD rat, PO 10 mg/kg (equal to freebase), individual rats, vehicle 20% HP-β-CD in water (POA, freebase) or water (salts), 10 mg/kg
[19] = male SD rat, PO 10 mg/kg (equal to freebase), mean n=3, vehicle 20% HP-β-CD in water (POA, freebase) or water (salts)
[20] = PO (group POE), 10 mg/kg, individual rats R40, R41, R42, 10 mg/kg
[21] = PO (group POE), 10 mg/kg, mean of R40-R42

Structure (SMILES) | solubility in water [1] | hygroscopicity (DVS) [2] | solid form after DVS test [2] | water absorbed in DVS [2] | concentration in plasma [3, 4] | concentration in plasma [3, 5] | concentration in plasma, Mean [3, 6] | concentration in plasma [3, 7] | concentration in plasma, Mean [3, 8] | concentration in plasma [3, 9] | concentration in plasma, Mean [3, 10] | concentration in plasma [3, 11] | concentration in plasma, Mean [3, 12] | concentration in plasma [3, 13] | concentration in plasma, Mean [3, 14] | concentration in plasma [3, 15] | concentration in plasma, Mean [3, 16] | concentration in plasma [3, 17] | further results
COc1cc2c(cc1OC)[C@@H]1Cc3ccc(O)c(OC)c3CN1CC2.O=C(O)/C=C\C(=O)O [TLZ-16 maleate] | approximately 11.0 mg/mL | slightly hygroscopic | does not change | about 0.085 wt % | BLOQ (BLOQ = below limit of quantitation (0.2 ng/mL)) | 138 ng/mL and 257 ng/mL and 438 ng/mL | 278 ng/mL | 132 ng/mL and 290 ng/mL and 287 ng/mL | 236 ng/mL | 118 ng/mL and 206 ng/mL and 176 ng/mL | 167 ng/mL | 106 ng/mL and 175 ng/mL and 55.8 ng/mL | 112 ng/mL | 104 ng/mL and 116 ng/mL and 69.3 ng/mL | 96.4 ng/mL | 40.8 ng/mL and 34.5 ng/mL and 34.1 ng/mL | 36.5 ng/mL | BLOQ (BLOQ = below limit of quantitation (0.2 ng/mL)) | F ([3]; male SD rat, PO 10 mg/kg (equal to freebase) vs IV 3 mg/kg freebase, individual rats, vehicle 20% HP-β-CD in water (POA, freebase) or water (salts)): 21.7% and 33.4% and 21.3%; F, Mean ([3]; male SD rat, PO 10 mg/kg (equal to freebase) vs IV 3 mg/kg freebase, mean n=3, vehicle 20% HP-β-CD in water (POA, freebase) or water (salts)): 25.5%; AUCInf [3, 18]: 965 ng·h/mL and 1132 ng·h/mL and 898 ng·h/mL; AUClast [3, 18]: 725 ng·h/mL and 1007 ng·h/mL and 709 ng·h/mL; AUClast/D [3, 18]: 72.5 kg·ng·h/mL/mg and 101 kg·ng·h/mL/mg and 70.9 kg·ng·h/mL/mg; AUC—% Extrap_obs [3, 18]: 24.9% and 11.1% and 21.0%; Cmax [3, 18]: 138 ng/mL and 290 ng/mL and 438 ng/mL; MRTInf_obs [3, 18]: 5.88 h and 3.67 h and 4.80 h; T1/2 [3, 18]: 4.08 h and 2.52 h and 3.83 h; Tmax [3, 18]: 0.25 h (2×) and 0.5 h; AUCInf, Mean [3, 19]: 998 ng·h/mL; AUClast, Mean [3, 19]: 814 ng·h/mL; AUClast/D, Mean [3, 19]: 81 kg·ng·h/mL/mg; AUC—% Extrap_obs, Mean [3, 19]: 19.0%; Cmax, Mean [3, 19]: 289 ng/mL; MRTInf_obs, Mean [3, 19]: 4.78 h; T1/2, Mean [3, 19]: 3.48 h; Tmax, Mean [3, 19]: 0.333 h
COc1cc2c(cc1OC)[C@@H]1Cc3ccc(O)c(OC)c3CN1CC2.O=C(O)C(=O)O [TLZ-16 oxalate] | approximately 19.2 mg/mL | slightly hygroscopic | does not change | about 0.25 wt % | BLOQ (BLOQ = below limit of quantitation (0.2 ng/mL)) | 302 ng/mL and 368 ng/mL and 131 ng/mL | 267 ng/mL | 270 ng/mL and 309 ng/mL and 148 ng/mL | 242 ng/mL | 143 ng/mL and 200 ng/mL and 121 ng/mL | 155 ng/mL | 70.8 ng/mL and 86.0 ng/mL and 156 ng/mL | 104 ng/mL | 63.1 ng/mL and 120 ng/mL and 95.0 ng/mL | 92.7 ng/mL | 10.1 ng/mL and 56.8 ng/mL and 29.1 ng/mL | 32.0 ng/mL | BLOQ (BLOQ = below limit of quantitation (0.2 ng/mL)) | F [3, 20]: 18.5% and 28.8% and 25.3%; F, Mean [3, 21]: 24.2%; AUCInf [3, 20]: 629 ng·h/mL and 1369 ng·h/mL and 859 ng·h/mL; AUClast [3, 20]: 600 ng·h/mL and 960 ng·h/mL and 756 ng·h/mL; AUClast/D [3, 20]: 60 kg·ng·h/mL/mg and 96 kg·ng·h/mL/mg and 75.6 kg·ng·h/mL/mg; AUC—% Extrap_obs [3, 20]: 4.67% and 29.8% and 12.0%; Cmax [3, 20]: 302 ng/mL and 368 ng/mL and 156 ng/mL; MRTInf_obs [3, 20]: 2.59 h and 6.60 h and 3.95 h; T1/2 [3, 20]: 2.02 h and 4.98 h and 2.46 h; Tmax [3, 20]: 0.25 h (2×) and 2 h; AUCInf, Mean [3, 21]: 952 ng·h/mL; AUClast, Mean [3, 21]: 772 ng·h/mL; AUClast/D, Mean [3, 21]: 77.2 kg·ng·h/mL/mg; AUC—% Extrap_obs, Mean [3, 21]: 15.5%; Cmax, Mean [3, 21]: 275 ng/mL; MRTInf_obs, Mean [3, 21]: 4.38 h; T1/2, Mean [3, 21]: 3.15 h; Tmax, Mean [3, 21]: 0.833 h
